According to US20020040011A1, “Naphthoquinone compositions and uses thereof” (priority 2000, published 2002):

System: murine fibrosarcomas (RIF-1 cells)
Experiment: Chemopotentiation of cisplatin by menadione: tumor growth delay of RIF-1 fibrosarcomas in C3H mice
Type: in vivo
Conditions: for Median (TVQT) / TVQT ± S.E. (mean tumor volume quadrupling time) / TVQT/CTVQT (ratio of treated over untreated control): intradermal RIF-1 tumors, female C3H mice; for Median (TVQT) / TVQT ± S.E. (mean tumor volume quadrupling time) / TVQT/CTVQT (ratio of treated over untreated control) / Delay: i.p., menadione 10 mg/kg, cisplatin 4 mg/kg, combination: menadione 30 min before cisplatin; for Delay: median treated minus median control, RIF-1 tumors, C3H mice
Description: Transplantable experimental murine fibrosarcomas (2×10^5 RIF-1 cells) were grown intradermally in the flanks of 3 month old female C3H mice (Charles River, Holister, Calif.). When the tumors reached a volume of approximately 100 mm^3, the mice were randomly assigned to each experimental group (4 mice per group). The experimental compositions were prepared as described in Table 1. Menadione was obtained from Sigma Chemical Co. (St. Louis, Mo.) and was made to the appropriate concentration in DMSO. Cisplatin (David Bull Laboratories- Mulgrave, Australia, lot. 5201844x) was made to the appropriate concentration in water for injection. The compositions were injected systemically (i.e., intraperitoneally, i.p.), in a volume of 100 microliters. For the treatment of group 3, menadione was injected 30 minutes prior to the injection of cisplatin. After treatment, the growth of the tumors was monitored three times per week by caliper measurements of three perpendicular diameters of the tumor and calculation of tumor volume from the formula: V=π/6×D1×D2×D3, where D1-3 are the diameters in mm along the three different perpendicular axes. The tumors were followed until they reached a size of four times their day zero treatment volume (TVQT), or up to 30 days after treatment, whichever came first. The data is expressed as the “tumor volume quadrupling time” (TVQT) mean and as the “delay.” Mean TVQT is the mean days required for individual tumors to grow to four times the tumor volume at the initial treatment day. The “delay” is the median of days required for a tumor to grow to four times the mean size of the treated group, minus the median of days required to grow to four times the mean size of the control group. The data is also expressed as the ratio of the tumor volume quadrupling time of the treated tumor over the untreated control group ([…]). Increasing values of this ratio indicate increased antitumor response.

Row | Structure (SMILES) | Median (TVQT) [days] | TVQT ± S.E. (mean tumor volume quadrupling time) [days] | TVQT/CTVQT (ratio of treated over untreated control) | Delay [days] | antiproliferative activity of cisplatin when used with the chemopotentiator menadione (group 3 (menadione 10 mg/kg then cisplatin 4 mg/kg) versus either agent alone, more than additive effect)
1 | CC1=CC(=O)c2ccccc2C1=O [Menadione, 2-Methyl-1,4-Naphthoquinone] | 7.5 | 7.0 ± 0.5 | 1.0 | 0.61 | 
2 | N.N.[Cl][Pt][Cl] [Cisplatin, cis-diamminedichloroplatinum II] | 8.3 | 8.4 ± 0.3 | 1.3 | 1.44 | enhanced
